# From US20160220710A1, “COMPOSITIONS AND METHODS FOR DELIVERING PHARMACEUTICAL AGENTS” (THE REGENTS OF THE UNIVERSITY OF MICHIGAN, priority 2015, published 2016)
# Experiments:
# [1] = test system: alveolar macrophages (CD11c) and neutrophils (Ly6G); assay: Flow cytometry of alveolar exudate of drug fed mice; format: in vivo; conditions: 8 weeks
# Excerpt: Mice (4 week old, male C57Bl6) were purchased from the Jackson Laboratory (Bar Harbor, Me.) and acclimatized for 1 week in a specific-pathogen-free animal facility. Animal care was provided by the University of Michigan's Unit for Laboratory Animal Medicine (ULAM) and the experimental protocol was approved by the Committee on Use and Care of Animals in accordance with NIH guidelines. An oral diet containing CFZ was fed to mice as previously described (Baik J, et al., Antimicrob. Agents Chemother. 2013; 57:1218-30; Baik J, et al., PLoS One 2012; 7:e47494; Keswani R K, et al., Mol. Pharm. 2015:10). […]
# Mice were euthanized as described above and the trachea was surgically exposed and cannulated with an 18G luer stub and the lungs were lavaged to obtain alveolar exudate by instilling calcium- and magnesium-free Dulbecco's PBS (DPBS) containing 0.5 mM EDTA in 1-ml aliquots for a total of 6 ml. […] Viable (using Trypan Blue staining method) and CLDI containing cells were counted using a hemocytometer.
# Peritoneal and alveolar lavage was performed as stated before to obtain the respective exudates. […] For CLDI fluorescence signal experiments, cells were pelleted by centrifugation (100×g for 5 min) followed by resuspension in PBS+5% FBS (500 μl). […] These cells also had extremely high side-scatter that were measured as saturated signals. […]
# [2] = test system: caspase-3 and PARP cleavage; assay: Western blot of caspase 3, cleaved caspase 3 and cleaved PARP; format: cell-based, murine; conditions: 4 and 10 μM, 24 h
# [3] = test system: TLR2; assay: TNFα ELISA after Pam3 stimulation; format: cell-based, murine; conditions: Pam3, 2 and 4 μM
# Method: (§1) The murine macrophage cell line RAW 264.7 was purchased from ATCC (Manassas, Va.) and maintained in DMEM (Life Technologies, Carlsbad, Calif.) supplemented with 10% FBS. Soluble CFZ or isolated CLDIs were added at various concentrations in DMEM with 5% FBS to 6-well plates containing 4×10^5 cells/well and incubated (24 h at 37° C. and 5% CO2). Culture supernatants were harvested at 24 h, centrifuged (1500×g for 5 min), and stored (−20° C.) in frozen aliquots prior to analysis. For experiments involving TLR stimulation, cells were washed twice with pre-warmed DPBS to remove extracellular, non-phagocytosed CLDIs or CFZ, and then the cells were serum-starved for 18 h in DMEM. Supernatants were collected from unstimulated cells and cells stimulated with 200 ng/ml Pam3 or 1 μg/ml LPS in DMEM.
# (§2) The media of cells with or without 6 h TLR stimulation by Pam3 or LPS was harvested, and TNFα and IL-1RA levels were measured by ELISA (Duoset, R&D Systems, Minneapolis, Minn.) in duplicate wells according to the manufacturer's instructions. The cytokine concentrations were expressed as picogram per milligram of cell lysate. Experiments were repeated three times and values are expressed as the mean±SD.
# [4] = test system: TLR4; assay: TNFα ELISA after LPS stimulation; format: cell-based, murine; conditions: Mus musculus, read-out: inhibition of TNFα production
# Method: as §1, §2
# [5] = test system: TLR2, TLR4, TLR9 and MyD88; assay: Western blot of TLR2, TLR4, TLR9 and MyD88 in RAW 264.7 cells; format: cell-based, murine; conditions: 24 h incubation
# Method: as §1
compound,measurement,setting,value
"CC(C)/N=c1\cc2n(-c3ccc(Cl)cc3)c3ccccc3nc-2cc1Nc1ccc(Cl)cc1 [CFZ, 3-(p-chloroanilino)-10-(p-chlorophenyl)-2, 10-dihydro-2-isopropyliminophenazine]",% of CLDI(+) cells that are CD11c(+),[1],> 99%
same,% of Ly6G(+) cells detected as CLDI+,[1],< 2%
same,PARP cleavage,[2],increased PARP cleavage
same,Pam3/TLR2-mediated TNFα production,[3],Pam3/TLR2-mediated TNFα production was not affected
same,inhibition at 2 µM,[4]; 2 μM,51.2%
same,inhibition at 4 µM,[4]; 4 μM,76.5%
same,TLR2 and TLR4 expression,[5],upregulated TLR2 and TLR4 expression
